Activity calls are given as the source filed them. The rule behind the calls is not given here.
Tested on: Influenza A virus
Test: Antiviral activity against Influenza A virus A2/Asian/J305 infected in Swiss albino mouse assessed as increase in host survival at 50 mg/kg, ip administered as 7 doses immediately before virus inoculation and at 1, 5, 24, 30, 48 and 72 hrs after virus infection measured on 21st day post-infection
Format: functional, organism-based
Set-up: dose 50 mg/kg

Question: For `NC(=O)c1ncn([C@@H]2O[C@H](CO)[C@@H](O)[C@H]2O)n1`, which Activity is on record?
Answer: Active

Question: Which Activity does the source give for `Nc1nnn([C@@H]2O[C@H](CO)[C@@H](O)[C@H]2O)n1` here?
Answer: inactive

Question: `Nc1nnnn1[C@@H]1O[C@H](CO)[C@@H](O)[C@H]1O` was tested. Which Activity did it give?
Answer: inactive

— ChEMBL document CHEMBL3272124, “Synthesis of tetrazole ribonucleosides and their evaluation as antiviral agents. 2. 5-Amino-1-(beta-D-ribofuranosyl)-1H-tetrazole and 5-amino-2-(beta-D-ribofuranosyl)-2H-tetrazole” (J Med Chem, 1976)
